The values that follow come from patent publication US8436020B2, “Processes for the preparation of piperidinic derivatives and pharmaceutic compositions containing the same” (priority 2004, dated 2013).

“And” between values parts separate entries of the source, which are not always exact repeats. Equal entries are not always repeated. “Also recorded” adds a separate entry of the source. Where two headings read alike, the source gives them in different places. Bounds are passed on as bounds.

Data set [1] concerns the target cholinesterase in homogenized rat brain (Rattus norvegicus, UniProt P37136). The following applies: for IC50: rat brain homogenate. As to the method:
In all experiments, cholinesterase-independent substrate hydrolysis (non specific) was determined by the inclusion of an experimental group treated with THA 20 μM. Appropriate tissues and reagents (em branco) were also included. Reaction velocities were determined in 3 or 4 repetitions by condition; mean values were calculated and expressed as percentages of relative activity in respect to control (solvent), after subtraction of the non-specific hydrolysis rate. The substances were tested in at least five different concentrations. From the resulting inhibition curve, values in the ranges […] 20%-80% were considered, with concentration limited to 500 μM. The IC50, based in a single-site model, was determined via linear regression.

The subject of data set [2] is amnesia induced by scopolamine. Put plainly: Amnesia induced by scopolamine in the Morris water maze. The following applies: rats, scopolamine 1 mg/kg, 4 days test. The class given is in vivo, Wistar rats. The procedure: A total of 39 Wistar rats (females—±200 g) were used.
After 30 minutes of intraperitoneal second administration (saline or scopolamine), the animals were challenged to localize an underwater platform in a round recipient containing opaque water (water maze) and the escape latency (in seconds) was computed. […] Tests were conducted twice a day, during 4 consecutive days.
When treated with scopolamine 30 minutes before the challenge, the animals could not learn the task and the escape latency approaches maximum values (150 s) in the fourth day of the test.

For data set [3], the system named is amnesia induced by scopolamine. Put plainly: Amnesia induced by scopolamine in the inhibitory avoidance assay. The class given is in vivo, Swiss mice. Conditions: mice. The text has this: A total of 120 adult male (25-30 g) Swiss mice were used. The animals were submitted to the inhibitory avoidance assay, which consists of a box with a base made of a grid connected to an electrostimulator (0.6 mA/3 s), and containing a wood platform (3 cm^3). Mice were put over this platform; being computed the latency (in seconds) until the animals put the four paws over the grid. In the first day of the test (“training”), animals would receive an adverse electrical stimulus (0.6 mA/3 s) whenever they stepped down to the grid (step down latency—SDL). At this stage, animals that would stay more than 15 seconds over the platform were discarded. Twenty-four hours later, the animals were re-introduced over the platform and the SDL computed (“retention”).

The format of data set [4] is in vivo, mice.
Data set [5] in a line: Cholinergic side effects (diarrhea) 30 minutes after administration, rats. The class given is in vivo. The text has this:
Results from this assay can be seen in FIGS. 8-9.

A short description of data set [6]: Water solubility of the chlorhydrate derivatives.
In data set [7] the target is T1, AChE (Homo sapiens, UniProt P22303). The following applies: read-out: IC50, AChE; cited from earlier work.
T1 sequence (P22303 32-614): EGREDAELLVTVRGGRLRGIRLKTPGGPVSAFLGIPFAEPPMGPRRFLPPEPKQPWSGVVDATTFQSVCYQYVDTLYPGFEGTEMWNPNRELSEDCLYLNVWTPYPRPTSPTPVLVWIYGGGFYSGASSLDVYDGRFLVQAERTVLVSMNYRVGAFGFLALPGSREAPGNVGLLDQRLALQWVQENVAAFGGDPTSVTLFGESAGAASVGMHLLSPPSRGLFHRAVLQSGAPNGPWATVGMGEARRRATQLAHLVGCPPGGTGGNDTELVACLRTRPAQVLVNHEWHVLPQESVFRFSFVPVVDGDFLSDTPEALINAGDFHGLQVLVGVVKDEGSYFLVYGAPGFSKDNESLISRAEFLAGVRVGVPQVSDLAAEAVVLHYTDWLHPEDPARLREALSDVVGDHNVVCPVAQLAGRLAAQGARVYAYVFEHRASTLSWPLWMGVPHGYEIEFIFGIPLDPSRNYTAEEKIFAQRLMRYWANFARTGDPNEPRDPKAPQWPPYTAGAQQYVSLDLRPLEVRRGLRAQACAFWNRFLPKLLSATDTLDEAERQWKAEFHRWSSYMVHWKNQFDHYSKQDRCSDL
Data set [8] has as its target BuChE (Homo sapiens, UniProt P06276). The following applies: arisugacines and cyclopenine: no BuChE inhibition at this multiple; cyclophostin: BuChE inhibited at this multiple; cited from earlier work.
Data set [9] addresses T1, AChE. Conditions: cited from earlier work; for IC50: read-out: IC50 AChE, tacrine as positive control.
Data set [10] addresses butyrylcholinesterase (BuChE) (Homo sapiens, UniProt P06276). The following applies: read-out: IC50 BuChE; cited from earlier work.
Data set [11] concerns the target T1, AChE. Conditions: cited from earlier work.
In data set [12] the target is T1, AChE. Conditions: read-out: IC50, AChE activity; cited from earlier work.
Data set [13] concerns the target T1, AChE. The following applies: read-out: IC50, anticholinesterasic activity; cited from earlier work.
The mark [14] stands for this setting: read-out: Experimental IC50, cerebral cholinesterase inhibition, single independent experiment (one animal), acetylthiocholine 1 mM.
Where [15] appears, read: read-out: Mean IC50, cerebral cholinesterase inhibition, mean of N independent experiments.

cholinesterase in homogenized rat brain, sequence (P37136 32-614): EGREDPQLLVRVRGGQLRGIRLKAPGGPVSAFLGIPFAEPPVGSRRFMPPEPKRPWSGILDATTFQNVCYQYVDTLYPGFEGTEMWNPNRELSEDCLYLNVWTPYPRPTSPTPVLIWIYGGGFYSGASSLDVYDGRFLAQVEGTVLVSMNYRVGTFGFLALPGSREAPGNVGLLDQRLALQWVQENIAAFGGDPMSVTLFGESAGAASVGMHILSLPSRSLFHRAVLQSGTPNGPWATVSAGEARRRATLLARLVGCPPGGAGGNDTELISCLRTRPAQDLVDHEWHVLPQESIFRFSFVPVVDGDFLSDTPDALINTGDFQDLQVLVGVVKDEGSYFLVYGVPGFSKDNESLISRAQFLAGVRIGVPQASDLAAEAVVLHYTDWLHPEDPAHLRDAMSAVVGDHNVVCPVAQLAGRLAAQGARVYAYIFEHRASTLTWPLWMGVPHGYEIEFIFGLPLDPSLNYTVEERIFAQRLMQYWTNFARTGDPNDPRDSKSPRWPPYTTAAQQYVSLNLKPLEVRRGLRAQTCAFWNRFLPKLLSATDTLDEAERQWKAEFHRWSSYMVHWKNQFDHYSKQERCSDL
BuChE, sequence (P06276 29-602): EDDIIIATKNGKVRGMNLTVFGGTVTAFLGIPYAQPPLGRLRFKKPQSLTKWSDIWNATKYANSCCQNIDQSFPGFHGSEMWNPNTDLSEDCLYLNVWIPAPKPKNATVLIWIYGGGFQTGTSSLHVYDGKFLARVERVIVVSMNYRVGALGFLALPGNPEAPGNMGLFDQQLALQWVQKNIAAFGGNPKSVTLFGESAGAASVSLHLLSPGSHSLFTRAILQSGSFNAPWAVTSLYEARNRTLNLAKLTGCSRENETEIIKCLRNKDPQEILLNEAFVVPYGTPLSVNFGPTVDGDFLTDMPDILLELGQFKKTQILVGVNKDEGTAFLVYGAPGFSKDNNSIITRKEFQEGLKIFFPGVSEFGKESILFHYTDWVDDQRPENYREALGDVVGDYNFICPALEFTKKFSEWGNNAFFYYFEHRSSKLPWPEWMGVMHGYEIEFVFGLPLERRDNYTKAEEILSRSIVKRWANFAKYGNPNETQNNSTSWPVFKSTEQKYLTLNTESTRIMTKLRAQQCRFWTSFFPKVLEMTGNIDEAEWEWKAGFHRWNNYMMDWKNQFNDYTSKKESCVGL
butyrylcholinesterase (BuChE), sequence (P06276 29-602): as above

Turning to `CC(=O)CCCCCCCCCCCC[C@H]1CC[C@@H](OC(C)=O)[C@@H](C)N1.Cl` [LASSBio-767, 2-(R)-methyl-3-(R)—O-acetyl-6-(S)-(tetradecyl-13′-one)-piperidine chlorhydrate], in data set [1], the “AChE inhibitory capacity ex vivo” value is given as “remarkable anticholinesterasic activity”. The IC50 (as a rule, the midpoint of a concentration-inhibition curve) in data set [1] (setting [14]) was 4.82 µM and 4.49 µM; in [1] (setting [15]), 4.65 µM. Moreover, the “Reversion of amnesia induced by scopolamine, escape latency in water maze” value (from here on “Reversion of amnesia induced … in water maze”) in data set [2] (1 mg/kg) is recorded as “superior effect in relation to tacrine in the reversion of the induced amnesia by scopolamine”; in data set [2] (10 mg/kg), “also observed”. Also, the “Reversion of amnesia induced by scopolamine, step down latency” value (shortened to “Reversion … step down latency”) in data set [3] (1 and 10 mg/kg, scopolamine 1 mg/kg) is “do not differ from the ones treated only with scopolamine; also recorded: did not present any effect on the amnesia induced by scopolamine”. The “Cholinergic side effects and motor activity” value in data set [4] (10 mg/kg) was “no cholinergic side effects and no interference in the motor activity”. Moreover, the Occurrence of diarrhea entry in data set [5] is given as “Only animals treated with tacrine presented diarrhea”. In addition, in data set [6], the Solubility in water entry was “water-soluble”.
Consider `CC(=O)CCCCCCCCCCCC[C@H]1CC[C@@H](O)[C@@H](C)N1.Cl` [LASSBio-768, Espectaline Chlorhydrate], for which the “AChE inhibitory capacity ex vivo” value in [1] is “remarkable anticholinesterasic activity”. The IC50 in data set [1] (setting [14]) is 195 µM and 278 µM; in data set [1] (setting [15]), 236 µM. In addition, the Solubility in water entry in data set [6] is “water-soluble”.
For `CC(=O)O[C@@H]1CC[C@H](CCCCCCCCCCCCC(C)O)N[C@@H]1C` (stereo partly drawn) [LASSBio-783, (2R,3R,6S)-3-acetoxy-6-(13-hydroxy-tetradecyl-2-methyl)-piperidine chlorhydrate], the IC50 is 333 µM and 702 µM and 242 µM in [1] (setting [14]); 426 µM in [1] (setting [15]).
Consider `CC(=O)CCCCCCCCCCCC[C@H]1CC[C@@H](OC(=O)OC(C)(C)C)[C@@H](C)N1.Cl` [LASSBio-822, 2-(R)-methyl-3-(R)—O-ter-butoxycarbonyl-6-(S)-(tetradecyl-13′-one)-piperidine chlorhydrate], for which the “AChE inhibitory capacity ex vivo” value in data set [1] is reported as “remarkable anticholinesterasic activity”. The IC50 in data set [1] (setting [14]) is 9.15 µM and 16.2 µM and 19.9 µM; in [1] (setting [15]) it was 15.1 µM. In data set [2] (1 mg/kg), the “Reversion of amnesia induced … in water maze” value is “not capable of antagonize the amnesia induced by scopolamine”. Moreover, in data set [3] (1 and 3 mg/kg, scopolamine 1 mg/kg), the “Reversion … step down latency” value is given as “significant partial reversion of the amnesia induced by scopolamine; also recorded: capable of a significant reversion of the amnesia induced by scopolamine”. For the same compound, in data set [6], the Solubility in water entry was “water-soluble”.
For the compound `Nc1c2c(nc3ccccc13)CCCC2` [Tacrine, tacrine, reference compound], the “Reversion of amnesia induced … in water maze” value in [2] (1 mg/kg) is “antagonize the induced amnesia by scopolamine, a significant effect in the fourth day of the study”. For the same compound, the “Reversion … step down latency” value in data set [3] (5.6 mg/kg) is “complete reversion of the amnesia induced by scopolamine; also recorded: totally reversed the effect of scopolamine”. Besides, in data set [4] (10 mg/kg I.P., mice), the “Mice with diarrhea and urination” value is 70%; the “Other side effects observed” value was “hypothermia and diminished motor activity”. For the same compound, the “Cholinergic side effect parameters” value in [4] (concentrations superior to 30 mg/kg, mice) is “all checked parameters are altered”. In addition, the Animals with diarrhea in data set [5] (1 mg/kg) is 100%.
With `CN1C(=O)c2ccccc2NC(=O)[C@]12O[C@@H]2c1ccccc1` [cyclopenine], the IC50 in data set [7] is 2.04 µM. For the same compound, the “Concentration tested on BuChE as a multiple of the AChE IC50 (selectivity)” value in data set [8] is > 2,000 times.
For the compound `CO[P@]1(=O)OC[C@H]2COC(=O)C2=C(C)O1` [cyclophostin], in data set [7], the IC50 was 0.0013 µM. Further, the “Concentration tested on BuChE as a multiple of the AChE IC50 (selectivity)” value in data set [8] is listed as 35 times.
For the compound `CC[C@H](C)[C@H]1NC(=O)c2c1n(C)c1ccccc1c2=O` [quinolactacin A1], in [9], the IC50 is 280 µM.
With `CC[C@H](C)[C@@H]1NC(=O)c2c1n(C)c1ccccc1c2=O` [quinolactacin A2], the “Inhibitory AChE activity relative to diastereoisomer A1” value in [9] is reported as 14 times. Moreover, the IC50 is 19.8 µM in data set [9] and 650 µM in data set [10].
On to `COc1cc(-c2cc3c(c(=O)o2)C[C@]2(O)[C@@]4(C)C(=O)C=CC(C)(C)[C@]4(O)CC[C@@]2(C)O3)cc(OC)c1OC` [territrem B], for which the IC50 in [7] is 0.0076 µM. Also, the “Potency relative to neostigmine in AChE inhibition” value in [11] is “approximately 20 times”.
As to `COc1cc(-c2cc3c(c(=O)o2)C[C@]2(O)[C@@]4(C)C(=O)C=CC(C)(C)[C@]4(O)CC[C@@]2(C)O3)cc(OC)c1O` [territrem C], in data set [7], the IC50 is 0.0068 µM.
On to `C/C(=C\CNc1ncnc2nc[nH]c12)CO` [zeatine], for which the IC50 in data set [12] was 109 µM.
`C=C1CC[C@H]2C(C)(C)[C@@H](O)CC[C@]2(C)[C@H]1CC[C@H]1C(=C)CC[C@H]2C(C)(C)[C@@H](O)CC[C@]12C` [α-onocerine, α-onocerin]: in data set [13], the IC50 is 5.2 µM.
